Assay results taken from PubChem BioAssay (NCI).
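1) Cells in 96-well plates. 2) Compound, 48 h, 5 concentrations. 3) Linear interpolation between surrounding doses. 4) Unreached endpoint = highest concentration. TGI: concentration producing complete growth inhibition.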

How the values were obtained:
Experiment in all cases: DTP human tumour cell line panel, 48 h
HCC-2998 colon = tested on: HCC-2998 colon
NCI-H522 lung = tested on: NCI-H522 lung
K-562 leukemia = tested on: K-562 leukemia
HOP-92 NSCLC = tested on: HOP-92 NSCLC
NCI-H226 lung = tested on: NCI-H226 lung
HOP-62 NSCLC = tested on: HOP-62 NSCLC
MALME-3M melanoma = tested on: MALME-3M melanoma
U251 CNS = tested on: U251 CNS

Row | SMILES | TGI (HCC-2998 colon) [µM] | TGI (NCI-H522 lung) [µM] | TGI (K-562 leukemia) [µM] | TGI (HOP-92 NSCLC) [µM] | TGI (NCI-H226 lung) [µM] | TGI (HOP-62 NSCLC) [µM] | TGI (MALME-3M melanoma) [µM] | TGI (U251 CNS) [µM]
1 | O=c1cc(-c2ccccn2)[nH]c2cccc(F)c12 | > 100 | > 100 | > 100 | > 100 | > 100 | > 100 | – | –
2 | N#C/C(=C1\SCC(=O)N1c1ccccc1)c1nc2ccccc2[nH]1 | – | > 100 | > 100 | > 100 | > 100 | > 100 | > 100 | > 100
3 | C#CC1(O)CCC2C3CCc4cc(Oc5nc(F)nc(-c6c7ccccc7c7n6CCS7)n5)ccc4C3CC[C@@]21C (some centres undefined) | 41.7 | 20.9 | > 100 | 47 | 92.5 | 36.1 | > 100 | 40.7
4 | CCCn1c(SCCSc2c3ccccc3c(-c3nc(F)nc(F)n3)n2CCC)c2ccccc2c1-c1nc(F)nc(F)n1 | > 100 | > 100 | > 100 | > 100 | – | > 100 | > 100 | > 100
5 | CC(C)N(C(=O)c1cccc(C(=O)N(C(C)C)C(C)C)c1)C(C)C | > 100 | > 100 | > 100 | > 100 | > 100 | > 100 | > 100 | > 100
6 | [N-]=[N+]=NC(c1cn(C2CC(O)C(CO)O2)c(=O)[nH]c1=O)C(Cl)Br (centres undefined) | > 100 | > 100 | > 100 | > 100 | > 100 | – | > 100 | > 100
7 | ClC(Cl)=C(Cl)C1(Cl)CC1COCc1ccccc1 (centres undefined) | 81.2 | 44.2 | > 100 | 42.8 | 95.6 | 79.3 | 43.7 | –
8 | CCO/C=C1\N=C(c2ccc(Cl)c(Cl)c2)OC1=O | > 100 | > 100 | > 100 | > 100 | > 100 | > 100 | > 100 | –
9 | C=CC(=O)N1C/C(=C\c2ccc(Cl)c(Cl)c2)C(=O)/C(=C/c2ccc(Cl)c(Cl)c2)C1 | 0.446 | 0.302 | 0.28 | 2.94 | 2.73 | 0.607 | – | 0.0724
10 | C=C1CC(CC)(CCN2C(=O)c3ccccc3C2=O)OC1=O (centres undefined) | 32.1 | 11.8 | > 100 | – | 40.6 | > 100 | 27.3 | –
11 | Cc1cc2c(c(C(N)=O)c1C)-c1cccc(F)c1C2=O | > 100 | > 100 | > 100 | > 100 | – | > 100 | > 100 | > 100
12 | C/C(CC(=O)Nc1cccc(Cl)c1C)=N\NC(N)=S | > 100 | > 100 | > 100 | > 100 | > 100 | > 100 | > 100 | > 100
13 | C[N+]1=c2c3cccc4cccc(c(=O)n2CC1)c43 | – | 24.4 | 47.7 | 61.8 | 28.7 | 53.1 | 22.6 | 85.8
14 | C=CCn1c(=S)sc2c(C(=O)OCC)c3c(C)cc(C)cn3c2c1=O | > 100 | > 100 | > 100 | – | > 100 | > 100 | > 100 | > 100
15 | Cc1c(C(=O)C/C(=N/NC(=O)c2ccccc2)C(=O)Nc2ccc(Cl)cc2)[n+](=O)c2ccccc2n1[O-] | – | > 100 | > 100 | – | > 100 | > 100 | > 100 | > 100
16 | Cc1cc(N(CCC#N)S(=O)(=O)c2ccccc2)ccc1/C=C1\N=C(c2ccc(Cl)cc2)OC1=O | > 100 | – | > 100 | > 100 | > 100 | – | > 100 | > 100
17 | CCOC(=O)NC(=O)c1cn(CCN2CCN(C(=O)CNC(=O)CNC(=O)Cn3cc(C(=O)NC(=O)OCC)c(=O)[nH]c3=O)CC2)c(=O)[nH]c1=O | > 100 | > 100 | > 100 | > 100 | – | > 100 | > 100 | > 100
18 | O=C1C2C(C(=O)N1c1ccccc1)C1c3ccccc3C2C2C(=O)N(c3ccccc3)C(=O)C21 (centres undefined) | 24.7 | 8.07 | > 100 | > 100 | > 100 | – | 67.8 | 11.5
19 | CC(C)C1CO[C@]2(C)CCC(=O)N12 (some centres undefined) | – | > 100 | > 100 | > 100 | > 100 | > 100 | > 100 | > 100
20 | COc1ccccc1N=Nc1c(-c2ccccc2)nn(C(=O)CC(=O)Nc2cccc(C)c2)c1-c1ccccc1 | > 100 | > 100 | 52.7 | – | > 100 | > 100 | > 100 | > 100
21 | Cc1ccc(S(=O)(=O)N/N=C(\c2nc3ccc(Cl)cc3[nH]c2=O)C(O)c2ccco2)cc1 (centres undefined) | > 100 | – | > 100 | > 100 | > 100 | – | > 100 | –
